Source: PubChem BioAssay AID330 (DTP/NCI, 2004)
“And” between values parts separate entries of the source, which are not always exact repeats. Equal entries are not always repeated. Toxic doses and inconclusive results are not listed. Peptide text beside a SMILES is read from it. * marks the point of attachment. Cbz = O=C(OCc1ccccc1)*

System: P388 leukemia ip, CD2F1 mice, survival T/C
Test: NCI In Vivo Anticancer Drug Screen. Data for tumor model P388 Leukemia (intraperitoneal) in CD2F1 (CDF1) mice
Settings: endpoint: median survival time, higher = longer survival
Summary of the method: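 Mice carrying the transplanted tumor received test compound or vehicle. Survival was recorded in each group, and the value is the treated-group measurement divided by that of the vehicle-treated control group.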

[1] = dose: 50.0 mg/kg/injection, schedule: Q01DX005 (ip), vehicle: Klucel (hydroxypropylcellulose) (HPC)
[2] = dose: 100.0 mg/kg/injection, schedule: Q01DX005 (ip), vehicle: Klucel (hydroxypropylcellulose) (HPC)
[3] = dose: 200.0 mg/kg/injection, schedule: Q01DX005 (ip), vehicle: Klucel (hydroxypropylcellulose) (HPC)
[4] = dose: 50.0 mg/kg/injection, schedule: Q01DX009 (ip), vehicle: saline

`CCOC(=O)CNC(=O)C(CSSCC(NC(=O)OCc1ccccc1)C(=O)O)NC(=O)OCc1ccccc1` (configuration not stated) was tested, and the T/C [1] was 97 % of control, the T/C [2] was 97 % of control and the T/C [3] was 99 % of control.
For `C=COC(=O)C(Cc1ccc(OC)cc1)NC(=O)OCc1ccccc1` (configuration not stated), the T/C (dose: 100.0 mg/kg/injection, schedule: Q04DX002 (ip), vehicle: Klucel (hydroxypropylcellulose) (HPC)) was 103 % of control, the T/C (dose: 200.0 mg/kg/injection, schedule: Q04DX002 (ip), vehicle: Klucel (hydroxypropylcellulose) (HPC)) was 91 % of control and the T/C (dose: 400.0 mg/kg/injection, schedule: Q04DX002 (ip), vehicle: Klucel (hydroxypropylcellulose) (HPC)) was 94 % of control.
In the case of `CC(C)C(NC(=O)C(Cc1cnc[nH]1)NC(=O)OCc1ccccc1)C(=O)O` (stereo not drawn) (Cbz-His-Val-OH; configuration not given here), the T/C [1] is reported as 101 % of control, the T/C [2] is reported as 96 % of control and the T/C [3] is reported as 100 % of control.
In the case of `Cc1cnc2cc(-c3ccccc3)[nH]c2n1`, the T/C (dose: 15.0 mg/kg/injection, schedule: Q01DX005 (ip), vehicle: Klucel (hydroxypropylcellulose) (HPC)) is reported as 90 % of control, the T/C (dose: 30.0 mg/kg/injection, schedule: Q01DX005 (ip), vehicle: Klucel (hydroxypropylcellulose) (HPC)) is reported as 87 % of control and the T/C (dose: 60.0 mg/kg/injection, schedule: Q01DX005 (ip), vehicle: Klucel (hydroxypropylcellulose) (HPC)) is reported as 88 % of control.
`C[C@H](N)[C@H](O)c1cccc(O)c1` was tested, and the T/C (dose: 1.5 mg/kg/injection, schedule: Q01DX005 (ip), vehicle: saline) was 103 % of control, the T/C (dose: 3.0 mg/kg/injection, schedule: Q01DX005 (ip), vehicle: saline) was 99 % of control and the T/C (dose: 6.0 mg/kg/injection, schedule: Q01DX005 (ip), vehicle: saline) was 110 % of control. For the same compound, the T/C (dose: 6.25 mg/kg/injection, schedule: Q01DX005 (ip), vehicle: saline) was 115 % of control and the T/C (dose: 25.0 mg/kg/injection, schedule: Q01DX005 (ip), vehicle: saline) was 100 % of control.
For `O=C1CCCC2=C1[Se]C1(O2)C(=O)CCCC1=O`, the T/C (dose: 12.5 mg/kg/injection, schedule: Q01DX009 (ip), vehicle: saline) was 102 % of control, the T/C (dose: 25.0 mg/kg/injection, schedule: Q01DX009 (ip), vehicle: saline) was 101 % of control and the T/C [4] was 104 % of control and 107 % of control.
`CC1(/C=N/NC(N)=O)NC(=O)NC1=O` (configuration not stated) was tested, and the T/C (dose: 50.0 mg/kg/injection, schedule: Q01DX005 (ip), vehicle: saline with Tween-80) was 96 % of control, the T/C (dose: 100.0 mg/kg/injection, schedule: Q01DX005 (ip), vehicle: saline with Tween-80) was 103 % of control and the T/C (dose: 200.0 mg/kg/injection, schedule: Q01DX005 (ip), vehicle: saline with Tween-80) was 96 % of control.
In the case of `N#CCCCCCN1CCN(c2cccc(Cl)c2)CC1`, the T/C (dose: 50.0 mg/kg/injection, schedule: Q01DX009 (ip), vehicle: Klucel (hydroxypropylcellulose) (HPC)) is reported as 100 % of control, the T/C (dose: 100.0 mg/kg/injection, schedule: Q01DX009 (ip), vehicle: Klucel (hydroxypropylcellulose) (HPC)) is reported as 100 % of control and the T/C (dose: 200.0 mg/kg/injection, schedule: Q01DX009 (ip), vehicle: Klucel (hydroxypropylcellulose) (HPC)) is reported as 96 % of control.
With `CC1CN1P(=O)(N1CCCCCC1)N1CC1C` (configuration not stated) the T/C (dose: 12.5 mg/kg/injection, schedule: Q04DX003 (ip), vehicle: saline) was 104 % of control, the T/C (dose: 22.0 mg/kg/injection, schedule: Q01DX009 (ip), vehicle: saline) was 122 % of control and the T/C (dose: 25.0 mg/kg/injection, schedule: Q04DX003 (ip), vehicle: saline) was 100 % of control. The T/C (dose: 33.0 mg/kg/injection, schedule: Q01DX009 (ip), vehicle: saline) was 155 % of control, the T/C [4] was 154 % of control and 166 % of control and the T/C (dose: 75.0 mg/kg/injection, schedule: Q01DX009 (ip), vehicle: saline) was 111 % of control. For the same compound, the T/C (dose: 100.0 mg/kg/injection, schedule: Q04DX003 (ip), vehicle: saline) was 158 % of control.
For `CC1(CCOCc2ccccc2)NC(=O)NC1=O` (configuration not stated), the T/C (dose: 100.0 mg/kg/injection, schedule: Q01DX009 (ip), vehicle: saline with Tween-80) was 90 % of control, the T/C (dose: 200.0 mg/kg/injection, schedule: Q01DX009 (ip), vehicle: saline with Tween-80) was 100 % of control and the T/C (dose: 400.0 mg/kg/injection, schedule: Q01DX009 (ip), vehicle: saline with Tween-80) was 100 % of control.
For `CCCCCCCCN1COC2CCc3ccccc3C21` (configuration not stated), the T/C (dose: 50.0 mg/kg/injection, schedule: Q01DX005 (ip), vehicle: saline) was 100 % of control, the T/C (dose: 100.0 mg/kg/injection, schedule: Q01DX005 (ip), vehicle: saline) was 101 % of control and the T/C (dose: 200.0 mg/kg/injection, schedule: Q01DX005 (ip), vehicle: saline) was 100 % of control.
`Cc1c2oc3c(C)ccc(C(=O)NCCc4ccccc4)c3nc-2c(C(=O)NCCc2ccccc2)c(N)c1=O` was tested, and the T/C (dose: 50.0 mg/kg/injection, schedule: Q04DX003 (ip), vehicle: DMSO) was 92 % of control, the T/C (dose: 100.0 mg/kg/injection, schedule: Q04DX003 (ip), vehicle: DMSO) was 91 % of control and the T/C (dose: 200.0 mg/kg/injection, schedule: Q04DX003 (ip), vehicle: DMSO) was 90 % of control.
